What was measured:
rat P2X7 = biological target: T1, rat P2X7 (Rattus norvegicus, UniProt Q64663); assay: Ca2+ flux (FLIPR) in 1321N1 cells expressing recombinant rat P2X7 channel; conditions: FLIPR (rat) IC50 (μM), 250 μM BzATP
T1 sequence (Q64663 1-595): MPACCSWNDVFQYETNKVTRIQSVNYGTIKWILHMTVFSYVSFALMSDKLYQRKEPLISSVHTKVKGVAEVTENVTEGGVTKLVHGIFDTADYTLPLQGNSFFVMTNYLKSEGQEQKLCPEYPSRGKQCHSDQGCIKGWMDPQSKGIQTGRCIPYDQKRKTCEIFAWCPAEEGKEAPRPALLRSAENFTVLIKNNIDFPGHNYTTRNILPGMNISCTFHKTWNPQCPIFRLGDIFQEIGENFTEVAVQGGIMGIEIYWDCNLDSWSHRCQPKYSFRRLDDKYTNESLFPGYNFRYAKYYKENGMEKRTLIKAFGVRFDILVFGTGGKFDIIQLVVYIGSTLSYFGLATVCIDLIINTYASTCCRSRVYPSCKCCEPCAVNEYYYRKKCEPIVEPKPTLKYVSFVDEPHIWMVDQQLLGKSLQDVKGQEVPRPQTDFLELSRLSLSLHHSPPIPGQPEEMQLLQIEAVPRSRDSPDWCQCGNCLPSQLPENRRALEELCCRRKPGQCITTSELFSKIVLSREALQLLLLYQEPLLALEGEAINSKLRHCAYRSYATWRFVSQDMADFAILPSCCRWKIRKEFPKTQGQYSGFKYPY

P2X7 [1] = biological target: T2, P2X7 (Homo sapiens, UniProt Q99572); assay: Radioligand binding, human P2X7-1321N1 cell membranes, tritiated A-804598
T2 sequence (Q99572 1-595): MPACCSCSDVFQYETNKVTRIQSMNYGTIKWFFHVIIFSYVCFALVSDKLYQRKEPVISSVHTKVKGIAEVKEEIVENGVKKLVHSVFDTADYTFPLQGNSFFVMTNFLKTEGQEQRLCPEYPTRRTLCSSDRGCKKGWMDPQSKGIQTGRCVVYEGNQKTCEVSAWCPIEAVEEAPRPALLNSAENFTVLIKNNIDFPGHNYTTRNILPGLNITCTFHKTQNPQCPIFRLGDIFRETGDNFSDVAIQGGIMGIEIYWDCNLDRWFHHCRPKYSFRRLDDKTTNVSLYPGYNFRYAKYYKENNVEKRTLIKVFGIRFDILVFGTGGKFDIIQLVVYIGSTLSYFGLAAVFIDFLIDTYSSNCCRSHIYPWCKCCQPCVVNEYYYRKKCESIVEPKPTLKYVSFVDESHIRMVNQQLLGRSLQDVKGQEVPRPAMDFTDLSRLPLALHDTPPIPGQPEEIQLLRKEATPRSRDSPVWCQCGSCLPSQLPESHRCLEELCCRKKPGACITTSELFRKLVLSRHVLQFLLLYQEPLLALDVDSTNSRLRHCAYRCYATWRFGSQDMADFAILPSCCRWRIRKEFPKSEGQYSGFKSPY

P2X7 [2] = biological target: T2, P2X7; assay: Ca2+ flux (FLIPR) in 1321N1 cells expressing recombinant human P2X7 channel; format: cell-based; parameters: expressed in transfected cells; host or cells: 1321N1 cells; conditions: 250 μM BzATP
Method: P2X7 Antagonism in Recombinant Human P2X7 Cells or Recombinant Rat P2X7 Cells: (a) Ca^2+ Flux and (b) Radioligand Binding
(a) Ca^2+ flux: 1321N1 cells expressing the recombinant human or rat P2X7 channel was cultured in HyQ DME/(HyClone/Dulbecco's Modified Eagle Medium) high glucose supplemented with 10% Fetal Bovine Serum (FBS) and appropriate selection marker. Cells were seeded at a density of 25000 cells/well (96-well clear bottom black walled plates) in 100 μl volume/well. On the day of the experiment, cell plates were washed with assay buffer, containing (in mM): 130 NaCl, 2 KCl, 1 CaCl2), 1 MgCl2, 10 HEPES, 5 glucose; pH 7.40 and 300 mOs. After the wash, cells were loaded with the Calcium-4 dye (Molecular Device) and incubated in the dark for 60 minutes. Test compounds were prepared at 250× the test concentration in neat DMSO. Intermediate 96-well compound plates were prepared by transferring 1.2 μL of the compound into 300 μL of assay buffer. A further 3× dilution occurred when transferring 50 μL/well of the compound plate to 100 μL/well in the cell plate. Cells were incubated with test compounds and dye for 30 minutes. […] The fluorescence change was measured 180 seconds after adding the agonist.

| IC50 (rat P2X7) | Ki (P2X7 [1]) | IC50 (P2X7 [2]) | Structure (SMILES) |
| --- | --- | --- | --- |
| 0.0071 µM | 100 nM | 15.1 nM | O=C(c1cccc(C(F)(F)F)c1Cl)N1CCn2c(-c3ccco3)nnc2C1c1ccccc1 (racemic) [Example 79, (±)-(2-chloro-3-(trifluoromethyl)phenyl)(3-(furan-2-yl)-8-phenyl-5,6-dihydro-[1,2,4]triazolo[4,3-a]pyrazin-7(8H)-yl)methanone] |
| 0.395 µM | 20 nM | 56.3 nM | CC(O)c1nnc2n1CCN(C(=O)c1cccc(C(F)(F)F)c1Cl)C2c1ccccc1 (racemic) [Example 80, (±)-(2-chloro-3-(trifluoromethyl)phenyl)(3-(1-hydroxyethyl)-8-phenyl-5,6-dihydro-[1,2,4]triazolo[4,3-a]pyrazin-7(8H)-yl)methanone] |
| > 10 µM |  | 1220 nM | COc1ccc(-c2nnc3n2C[C@H](C)N(C(=O)c2cccc(C(F)(F)F)c2Cl)C3)nc1 [Example 71] |
| 1.11 µM |  | 589 nM | O=C(c1cccc(C(F)(F)F)c1Cl)N1CCn2c(C3CC3)nnc2[C@H]1c1ccccc1 [Example 77, (R)-(2-chloro-3-(trifluoromethyl)phenyl)(3-cyclopropyl-8-phenyl-5,6-dihydro-[1,2,4]triazolo[4,3-a]pyrazin-7(8H)-yl)methanone] |
| 6.61 µM |  | 14.3 nM | COc1cnc(-c2nnc3n2C[C@H](C)N(C(=O)c2cccc(C(F)(F)F)c2Cl)C3)nc1 [Example 78, (S)-(2-chloro-3-(trifluoromethyl)phenyl)(3-(5-methoxypyrimidin-2-yl)-6-methyl-5,6-dihydro-[1,2,4]triazolo[4,3-a]pyrazin-7(8H)-yl)methanone] |
| 1.85 µM |  | 959 nM | CC(C)(C)c1nnc2n1CCN(C(=O)c1cccc(C(F)(F)F)c1Cl)[C@H]2c1ccccc1 [Example 82, (S)-(3-(tert-butyl)-8-phenyl-5,6-dihydro-[1,2,4]triazolo[4,3-a]pyrazin-7(8H)-yl)(2-chloro-3-(trifluoromethyl)phenyl)methanone] |
| 0.998 µM |  | 1790 nM | O=C(c1cccc(C(F)(F)F)c1Cl)N1CCn2c(-c3ccco3)nnc2[C@H]1c1ccccc1 [Example 83, (R)-(2-chloro-3-(trifluoromethyl)phenyl)(3-(furan-2-yl)-8-phenyl-5,6-dihydro-[1,2,4]triazolo[4,3-a]pyrazin-7(8H)-yl)methanone] |
| 9.93 µM |  | 3810 nM | CCc1nnc2n1CCN(C(=O)c1cccc(C(F)(F)F)c1Cl)[C@H]2c1ccccc1 [Example 87, (S)-(2-chloro-3-(trifluoromethyl)phenyl)(3-ethyl-8-phenyl-5,6-dihydro-[1,2,4]triazolo[4,3-a]pyrazin-7(8H)-yl)methanone] |
| > 10 µM |  | 980 nM | CC(C)c1nnc2n1CCN(C(=O)c1cccc(C(F)(F)F)c1Cl)[C@H]2c1ccccc1 [Example 89, (S)-(2-chloro-3-(trifluoromethyl)phenyl)(3-isopropyl-8-phenyl-5,6-dihydro-[1,2,4]triazolo[4,3-a]pyrazin-7(8H)-yl)methanone] |
| 17.7 µM |  | 755 nM | Cc1nnc2n1CCN(C(=O)c1cccc(C(F)(F)F)c1Cl)[C@H]2c1ccccn1 [Example 92, (S)-(2-chloro-3-(trifluoromethyl)phenyl)(3-methyl-8-(pyridin-2-yl)-5,6-dihydro-[1,2,4]triazolo[4,3-a]pyrazin-7(8H)-yl)methanone] |
| 2.16 µM |  | 434 nM | O=C(c1cccc(C(F)(F)F)c1Cl)N1CCn2c(C3CCC3)nnc2[C@@H]1c1ccccc1 [Example 94, (S)-(2-chloro-3-(trifluoromethyl)phenyl)(3-cyclobutyl-8-phenyl-5,6-dihydro-[1,2,4]triazolo[4,3-a]pyrazin-7(8H)-yl)methanone] |
| > 10 µM |  | 5510 nM | O=C(c1cccc(C(F)(F)F)c1Cl)N1CCn2c(nnc2C(F)(F)F)[C@@H]1c1ccccc1 [Example 98, (S)-(2-chloro-3-(trifluoromethyl)phenyl)(8-phenyl-3-(trifluoromethyl)-5,6-dihydro-[1,2,4]triazolo[4,3-a]pyrazin-7(8H)-yl)methanone] |
| > 10 µM |  | 1400 nM | O=C(c1cccc(Cl)c1Cl)N1CCn2c(nnc2C(F)(F)F)[C@@H]1c1ccccc1 [Example 103, (S)-(2,3-dichlorophenyl)(8-phenyl-3-(trifluoromethyl)-5,6-dihydro-[1,2,4]triazolo[4,3-a]pyrazin-7(8H)-yl)methanone] |
| > 10 µM |  | 4480 nM | Cc1nnc2n1CCN(C(=O)c1cccc(Cl)c1Cl)[C@@H]2c1ccc(F)cc1 [Example 104, (R)-(2,3-dichlorophenyl)(8-(4-fluorophenyl)-3-methyl-5,6-dihydro-[1,2,4]triazolo[4,3-a]pyrazin-7(8H)-yl)methanone] |
| > 10 µM |  | > 10000 nM | O=C(c1cccc(C(F)(F)F)c1Cl)N1CCn2c(C3CC3)nnc2[C@H]1c1ccc(F)cc1 [Example 106, (R)-(2-chloro-3-(trifluoromethyl)phenyl)(3-cyclopropyl-8-(4-fluorophenyl)-5,6-dihydro-[1,2,4]triazolo[4,3-a]pyrazin-7(8H)-yl)methanone] |
| > 10 µM |  | > 10000 nM | O=C(c1cccc(C(F)(F)F)c1Cl)N1CCn2c(C(F)F)nnc2[C@@H]1c1ccccc1 [Example 109, (S)-(2-chloro-3-(trifluoromethyl)phenyl)(3-(difluoromethyl)-8-phenyl-5,6-dihydro-[1,2,4]triazolo[4,3-a]pyrazin-7(8H)-yl)methanone] |
| > 10 µM |  | > 10000 nM | O=C(c1cccc(Cl)c1Cl)N1CCn2c(C(F)F)nnc2[C@@H]1c1ccccc1 [Example 111, (S)-(2,3-dichlorophenyl)(3-(difluoromethyl)-8-phenyl-5,6-dihydro-[1,2,4]triazolo[4,3-a]pyrazin-7(8H)-yl)methanone] |
| > 10 µM |  | 3810 nM | Cc1nnc2n1CCN(C(=O)c1cccc(Cl)c1Cl)[C@H]2c1ccccn1 [Example 113, (S)-(2,3-dichlorophenyl)(3-methyl-8-(pyridin-2-yl)-5,6-dihydro-[1,2,4]triazolo[4,3-a]pyrazin-7(8H)-yl)methanone] |
| > 10 µM |  | 4080 nM | Cc1nnc2n1CCN(C(=O)c1cccc(C(F)(F)F)c1Cl)[C@@H]2c1ccc(F)cc1 [Example 114, (R)-(2-chloro-3-(trifluoromethyl)phenyl)(8-(4-fluorophenyl)-3-methyl-5,6-dihydro-[1,2,4]triazolo[4,3-a]pyrazin-7(8H)-yl)methanone] |
| 19.6 µM |  | 921 nM | O=C(c1ccc(F)cc1Cl)N1CCn2c(nnc2C(F)(F)F)[C@H]1c1ccccc1 [Example 118, (R)-(2-chloro-4-fluorophenyl)(8-phenyl-3-(trifluoromethyl)-5,6-dihydro-[1,2,4]triazolo[4,3-a]pyrazin-7(8H)-yl)methanone] |
| > 10 µM |  | 11700 nM | O=C(c1ccc(F)c(Cl)c1Cl)N1CCn2c(nnc2C(F)(F)F)[C@@H]1c1ccccc1 [Example 125, (S)-(2,3-dichloro-4-fluorophenyl)(8-phenyl-3-(trifluoromethyl)-5,6-dihydro-[1,2,4]triazolo[4,3-a]pyrazin-7(8H)-yl)methanone] |
